This note sets out measurements from patent US20170209473A1, “ADIPONECTIN SECRETION REGULATOR” (THE UNIVERSITY OF TOKYO, priority 2014, published 2017).

What all share (type): cell-based, Mouse
Experiment [1] has as its system adiponectin monomers, trimers, hexamers and multimers. Description: Adiponectin multimerization state, non-reducing SDS-PAGE / Western blotting of culture supernatant. The following applies: FIG. 2. Here is the method: (§1) Mouse 3T3-L1 fibroblasts in a confluent state were induced with insulin to differentiate into adipocytes. The cells were then cultured for 48 hours in a DMEM medium containing 10% FBS. The cells were then cultured for 24 hours in a serum-free DMEM medium including L-fucose and/or D-glucose at the concentrations for each test section indicated in Table 1.
The cell culture supernatant in the same test sections as in Test Example 1 was collected, equivalent samples for each test section were subjected to non-reducing SDS-PAGE, and adiponectin monomers appearing at a molecular weight position of approximately 30 kDa, trimers appearing at a position of approximately 100 kDa, hexamers appearing at a position of approximately 200 kDa, and multimers appearing at higher molecular weight positions were detected by a Western blotting method using specific antibodies for adiponectin. A near-infrared fluorescence imager (“Odyssey Fc,” manufactured by LI-COR, Inc.) was used for the detection, and the various multimerization states were compared.

The subject of the next experiment is adiponectin. In words: Adiponectin expression by adipocytes, reducing SDS-PAGE / Western blotting of culture supernatant. The conditions noted are these: 3T3-L1-derived adipocytes, 24 hours serum-free DMEM, FIG. 1. Here is the method:
as §1
(§2) After culturing, the culture supernatant was collected and mixed with an equal amount of reducing SDS-PAGE (polyacrylamide gel electrophoresis) loading buffer and held for 10 minutes at 100° C., a 5-10-μL sample for each lane was subjected to SDS-PAGE, and the nuclear-receptor-type transcription factor PPAR-gamma, actin as an internal standard protein, and adiponectin were detected by a Western blotting method using specific antibodies for each in accordance with the usual method. A near-infrared fluorescence imager (“Odyssey Fc,” manufactured by LI-COR, Inc.) was used for the detection, and the relative expression levels of each protein were compared.

Experiment [2] relates to nuclear-receptor-type transcription factor PPAR-gamma. In words: PPAR-gamma expression in adipocytes, Western blotting. The conditions noted are these: 3T3-L1-derived adipocytes, 24 hours, FIG. 1. Here is the method: as §1, §2
Background: In western blotting, separated proteins are transferred to a membrane and probed.

Setting [3] is: 0.1 w/v % glucose + 0.1 w/v % L-fucose (test section 2) vs test section 1, tendency more pronounced at low glucose.
Where [4] appears, read: 0.45 w/v % glucose + 0.1 w/v % L-fucose (test section 4) vs test section 3.

The structures appear in SMILES notation.

Consider `C[C@H](O)[C@@H](O)[C@@H](O)[C@H](O)C=O` [L-fucose], for which the adiponectin multimers entry in experiment [1] (setting [3]) and in experiment [1] (setting [4]) was “increased” in each case. The “incidence of adiponectin monomers, trimers, and hexamers” value in experiment [1] (setting [3]) and in experiment [1] (setting [4]) was “reduced” each time. Besides, the “expression level of adiponectin” value in the experiment with adiponectin (0.1 w/v % glucose + 0.1 w/v % fucose (test section 2) vs test section 1 without fucose) and with adiponectin (0.45 w/v % glucose + 0.1 w/v % fucose (test section 4) vs test section 3 without fucose) was “tendency for the expression level of adiponectin to decrease” each time. Also, the “expression level of PPAR-gamma” value was “almost no change” in experiment [2] (0.1 w/v % D-glucose + 0.1 w/v % L-fucose (test section 2) vs test section 1) and “slight decrease” in experiment [2] (0.45 w/v % D-glucose + 0.1 w/v % L-fucose (test section 4) vs test section 3).
